For this assay, the system named is CCRF-CEM viability, CellTiter-Glo ATP luminescence, 8-48 h. In words: cytotoxicity in CCRF-CEM lymphoblastic leukemia cells – cell-based, CellTiter-Glo ATP luminescence, 8/24/48 h, dry powder, HRAS target identification, dose response (AID 720607). In general terms: Cellular ATP, detected with luciferase, serves as a proxy for viable cell number.

Records with an inconclusive call do not appear.

As for `CC(C)(C)OC(=O)NCCOCCOCCOc1ccc(N(C(=O)CCl)C(C(=O)NCCc2ccccc2)c2cccs2)cc1Cl` (stereo not given), the AC50 runs as follows: (measured here: 8 h treatment) 454 nM; (measured here: 24 h treatment) 34.4 nM; (measured here: 48 h treatment) 41.5 nM.

Turning to `COC(=O)c1ccc([C@@H]2c3[nH]c4ccccc4c3C[C@@H](C(=O)OC)N2C(=O)CCl)cc1`, the AC50 by setting is: (measured here: 8 h treatment) 272 nM; (measured here: 24 h treatment) 19.9 nM; (measured here: 48 h treatment) 23.4 nM.

Consider `Cc1onc(C(=O)N2CCN(C(c3ccc(Cl)cc3)c3ccc(Cl)cc3)CC2)c1[N+](=O)[O-]`, for which the AC50 is 553 nM (measured here: 8 h treatment), 68.9 nM (measured here: 24 h treatment) and 78.8 nM (measured here: 48 h treatment).

`COc1ccc(N(C(=O)CCl)C(C(=O)NCCc2ccccc2)c2cccs2)cc1Cl` (stereo not given) had an AC50 (measured here: 8 h treatment) of 321 nM, an AC50 (measured here: 24 h treatment) of 39 nM and an AC50 (measured here: 48 h treatment) of 38.7 nM.

Consider `C#CCCCC(=O)NCCOCCOCCOc1ccc(N(C(=O)CCl)C(C(=O)NCCc2ccccc2)c2cccs2)cc1Cl` (stereo not given), for which the AC50 is 2980 nM (measured here: 8 h treatment), 588 nM (measured here: 24 h treatment) and 565 nM (measured here: 48 h treatment).

Broadly, the AC50 is the concentration at which the activity in the assay is half-maximal.

Values taken from PubChem BioAssay AID720607 (Broad Institute, 2013).
